This is an account of results in patent publication US10647675B2 (priority 2015, dated 2020).

Values after ≈ are worked out from the molar mass of the structure shown. A value given as a limit tells only on which side of the number the result lay.

The test system of assay [1] is Trichophyton mentagrophytes SM-110. The assay can be described thus: Antifungal activity evaluation test: minimum inhibitory concentration (MIC), broth dilution by reference to CLSI M38-A2. The format is cell-based. The settings on record: SM110, read-out: MIC (T. menta.). In a few lines: (§1)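 MIC read visually as lowest concentration inhibiting growth by at least 80% relative to control after 4 days at 35° C. Trichophyton strains inoculated at 2×10^3 cells/mL final in MOPS-buffered RPMI 1640 (pH 7.0); compounds as 2-fold DMSO series, CLSI M38-A2 basis.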
Background: Dilution methods test growth across graded concentrations, often in twofold steps.

The test system of assay [2] is Trichophyton rubrum KD-1130. The assay is described as above. The settings on record: KD1130, read-out: MIC (T. rubrum). The assay is classed as cell-based. In a few lines: as §1

Broadly, the MIC is the smallest concentration in the dilution series that meets the test's criterion for growth inhibition. As to `COc1ccccc1-c1cccnc1Oc1cnc(Cl)nc1` [I-338, 2-chloro-5-{[3-(2-methoxyphenyl)pyridin-2-yl]oxy}pyrimidine], the MIC in assay [1] and in assay [2] was 0.2 to 0.78 µg/mL (≈ 0.637 to 2.49 µM) in each case.
As to `CCc1cccc(Oc2ncccc2-c2cnccc2OC)c1` [I-265, 2-(3-ethylphenoxy)-4′-methoxy-3,3′-bipyridine], the MIC in assay [1] and in assay [2] was 0.2 to 0.78 µg/mL (≈ 0.653 to 2.55 µM) in each case.
With `COc1ncc(C)cc1-c1cccnc1Oc1ccc(C(F)(F)F)nc1` [I-30, 2-methoxy-5-methyl-2′-{[6-(trifluoromethyl)pyridin-3-yl]oxy}-3,3′-bipyridine], the MIC in assay [1] and in assay [2] was ≤ 0.1 µg/mL throughout.
Turning to `COc1ccccc1-c1cncnc1Oc1ccc(C(C)C)cc1` [I-320, 4-(4-isopropylphenoxy)-5-(2-methoxyphenyl)pyrimidine], the MIC in assay [1] and in assay [2] was ≤ 0.1 µg/mL throughout.
For `COc1ccc(OC)c(-c2cccnc2Oc2ccc(C(C)(F)F)nc2)c1` [I-84, 2-{[6-(1,1-difluoroethyl)pyridin-3-yl]oxy}-3-(2,5-dimethoxyphenyl)pyridine], the MIC in assay [1] and in assay [2] was ≤ 0.1 µg/mL throughout.
Turning to `CCN(C)c1ncc(Oc2ncccc2-c2ccc(F)cc2OC)cn1` [I-184, N-ethyl-5-{[3-(4-fluoro-2-methoxyphenyl)pyridin-2-yl]oxy}-N-methylpyrimidin-2-amine], the MIC in assay [1] and in assay [2] was ≤ 0.1 µg/mL each time.
Take `COCC(F)(F)c1ccc(Oc2ncccc2-c2cccc3nccnc23)cn1` [I-168, 5-(2-{[6-(1,1-difluoro-2-methoxyethyl)pyridin-3-yl]oxy}pyridin-3-yl)quinoxaline]: the MIC in assay [1] and in assay [2] was 0.2 to 0.78 µg/mL (≈ 0.507 to 1.98 µM) each time.
For `FC(F)(F)c1ccc(Oc2ncccc2-n2ccc3cccnc32)cn1` [I-50, 1-(2-{[6-(trifluoromethyl)pyridin-3-yl]oxy}pyridin-3-yl)-1H-pyrrolo[2,3-b]pryidine], the MIC in assay [1] and in assay [2] was 0.2 to 0.78 µg/mL (≈ 0.561 to 2.19 µM) in each case.
Take `Cc1nc(C)c(-c2cccnc2Oc2ccc(C(F)(F)F)cc2)s1` [I-342]: the MIC in assay [1] and in assay [2] was 0.2 to 0.78 µg/mL (≈ 0.571 to 2.23 µM) in each case.
For the compound `Cc1ncc(-c2ccc(Oc3ncccc3-c3cnccc3C)cc2)o1` [I-423], the minimal inhibitory concentration (MIC) in assay [1] and in assay [2] was ≤ 0.1 µg/mL in each case.
In the case of `COc1ccncc1-c1cc(Cl)cnc1Oc1ccc(C(F)(F)F)cc1` [I-217, 5-chloro-4′-methoxy-2-[4-(trifluoromethyl)phenoxy]-3,3′-bipyridine], the MIC in assay [1] and in assay [2] was 1.56 to 6.25 µg/mL (≈ 4.1 to 16.4 µM) throughout.
As to `COc1cc(-c2cncnc2Oc2cnc(C(F)F)c(C)c2)c(F)cc1F` [I-325, 5-(2,4-difluoro-5-methoxyphenyl)-4-{[6-(difluoromethyl)-5-methylpyridin-3-yl]oxy}pyrimidine], the MIC in assay [1] and in assay [2] was ≤ 0.1 µg/mL throughout.
As to `COc1ccccc1-c1cccnc1Oc1cnc(C(F)F)c(C)c1` [I-120], the MIC in assay [1] and in assay [2] was ≤ 0.1 µg/mL in each case.
Consider `CCCN(C)c1ncc(Oc2ncccc2-c2ccccc2OC)cn1` [I-182, 5-{[3-(2-methoxyphenyl)pyridin-2-yl]oxy}-N-methyl-N-propylpyrimidin-2-amine], for which the MIC in assay [1] and in assay [2] was ≤ 0.1 µg/mL each time.
Consider `COc1ccncc1-c1cccnc1Oc1ccc(F)cc1` [I-236, 2-(4-fluorophenoxy)-4′-methoxy-3,3′-bipyridine], for which the MIC in assay [1] and in assay [2] was 1.56 to 6.25 µg/mL (≈ 5.26 to 21.1 µM) each time.
For the compound `CC(F)(F)c1ccc(Oc2ncccc2-c2cccc3nccnc23)cc1` [I-308, 5-{2-[4-(1,1-difluoroethyl)-phenoxy]-3-yl}quinoxaline], the MIC in assay [1] and in assay [2] was ≤ 0.1 µg/mL throughout.
In the case of `FC(F)(F)c1ccc(Oc2ncccc2-c2cccc3cc(Cl)nn23)cn1` [I-375, 2-chloro-7-(2-{[6-(trifluoromethyl)pyridin-3-yl]oxy}pyridin-3-yl)pyrazolo[1,5-a]pyridine], the MIC in assay [1] and in assay [2] was ≤ 0.1 µg/mL in each case.
Regarding `COc1ccccc1-c1cccnc1Oc1ccc(C)nc1` [I-68], the minimal inhibitory concentration (MIC) in assay [1] and in assay [2] was 1.56 to 6.25 µg/mL (≈ 5.34 to 21.4 µM) each time.
Consider `CC(F)(F)c1ccc(Oc2ncccc2-c2ccccc2C(F)F)cn1` [I-86, 2-{[6-(1,1-difluoroethyl)pyridin-3-yl]oxy}-3-[2-(difluoromethyl)phenyl]pyridine], for which the MIC in assay [1] and in assay [2] was 0.2 to 0.78 µg/mL (≈ 0.552 to 2.15 µM) in each case.
For the compound `CC(F)(F)c1ccc(Oc2ncncc2-c2cccc3ccnn23)cc1` [I-333, 7-{4-[4-(1,1-difluoroethyl)phenoxy]pyrimidin-5-yl}pyrazolo[1,5-a]pyridine], the MIC in assay [1] and in assay [2] was ≤ 0.1 µg/mL in each case.
Take `CCCN(C)c1ccc(Oc2ncccc2-c2ccc(F)cc2OC)cn1` [I-368, 5-{[3-(4-fluoro-2-methoxyphenyl)pyridin-2-yl]oxy}-N-methyl-N-propylpyridin-2-amine]: the MIC in assay [1] and in assay [2] was ≤ 0.1 µg/mL in each case.
As to `c1cnc(Oc2cnc3c(c2)CCCC3)c(-c2cccc3c2OCC3)c1` [I-137, 3-{[3-(2,3-dihydrobenzyofuran-7-yl)pyridin-2-yl]oxy}-5,6,7,8-tetrahydroquinoline], the MIC in assay [1] and in assay [2] was ≤ 0.1 µg/mL each time.
In the case of `COc1ncccc1-c1cccnc1Oc1ccc(CCOC(=O)N(C)C)cc1` [I-398, 4-{[(2′-methoxy-(3,3′-bipyridin)-2-yl]oxy}phenethyl dimethylcarbamate], the minimum inhibitory concentration (MIC) in assay [1] and in assay [2] was ≤ 0.1 µg/mL throughout.
Turning to `COc1ccccc1-c1cncnc1Oc1ccc(C(F)F)cc1` [I-322, 4-[4-(difluoromethyl)phenoxy]-5-(2-methoxyphenyl)pyrimidine], the MIC in assay [1] and in assay [2] was ≤ 0.1 µg/mL each time.
Regarding `COc1ccc(-c2cccnc2Oc2ccc(C(F)F)nc2)c(OC)n1` [I-78, 2′-{[6-(difluoromethyl)pyridin-3-yl]oxy}-2,6-dimethoxy-3,3′-bipyridine], the MIC in assay [1] and in assay [2] was ≤ 0.1 µg/mL throughout.
Turning to `COCC(F)(F)c1ccc(Oc2ncccc2-c2cccc3ncnn23)cn1` [I-343, 5-(2-{[6-(1,1-difluoro-2-methoxyethyl)pyridin-3-yl]oxy}pyridin-3-yl)-[1,2,4]triazolo[1,5-a]pyridine], the MIC in assay [1] and in assay [2] was 0.2 to 0.78 µg/mL (≈ 0.522 to 2.03 µM) in each case.
For `COc1cc(F)ccc1-c1cccnc1Oc1cnc(I)nc1` [I-191, 5-{[3-(4-fluoro-2-methoxyphenyl)pyridin-2-yl]oxy}-2-iodopyrimidine], the MIC in assay [1] and in assay [2] was 0.2 to 0.78 µg/mL (≈ 0.473 to 1.84 µM) in each case.
As for `CCc1ccc(Oc2ncccc2-c2cncc(C=O)c2OC)cc1` [I-287, 2′-(4-ethylphenoxy)-4-methoxy-(3,3′-bipyridine)-5-carbaldehyde], the MIC in assay [1] and in assay [2] was 0.2 to 0.78 µg/mL (≈ 0.598 to 2.33 µM) throughout.
As to `Cc1nn(C)c(C)c1-c1cccnc1Oc1ccc(C(F)(F)F)nc1` [I-346, 2-{[6-(trifluoromethyl)pyridin-3-yl]oxy}-3-(1,3,5-trimethyl-1H-pyrazol-4-yl)pyridine], the MIC in assay [1] and in assay [2] was 1.56 to 6.25 µg/mL (≈ 4.48 to 17.9 µM) throughout.
`FC(F)(F)c1ccc(Oc2ncccc2-c2cccc3ccnn23)cn1` [I-44, 7-(2-{[6-(trifluoromethyl)pyridin-3-yl]oxy}pyridin-3-yl)-pyrazolo[1,5-a]pryidine]: the MIC in assay [1] and in assay [2] was ≤ 0.1 µg/mL in each case.
In the case of `COc1c(Cl)cncc1-c1cccnc1Oc1ccc(C(F)(F)F)cc1` [I-211, 5′-chloro-4′-methoxy-2-[4-(trifluoromethyl)phenoxy]-3,3′-bipyridine], the MIC in assay [1] and in assay [2] was ≤ 0.1 µg/mL throughout.
Regarding `FC(F)(F)c1ccc(Oc2ncccc2-c2ccccc2Cl)cn1` [I-4, 3-(2-chlorophenyl)-2-{[6-(trifluoromethyl)pyridin-3-yl]oxy}pyridine], the MIC in assay [1] and in assay [2] was ≤ 0.1 µg/mL in each case.
For the compound `COc1ncccc1-c1cccnc1Oc1ccc(CCn2cc(C)cn2)cc1` [I-401, 2-methoxy-2′-{4-[2-(4-methyl-1H-pyrazol-1-yl)ethyl]phenoxy}-3,3′-bipyridine], the MIC in assay [1] and in assay [2] was ≤ 0.1 µg/mL each time.
`CCc1ccc(Oc2ncccc2-c2cnccc2CC)cc1` [I-291, 4′-ethyl-2-(4-ethylphenoxy)-3,3′-bipyridine]: the MIC in assay [1] and in assay [2] was ≤ 0.1 µg/mL in each case.
With `COc1ccccc1-c1cccnc1Oc1ccc(C(F)(F)F)nc1` [I-1, 3-(2-methoxyphenyl)-2-{[6-(trifluoromethyl)pyridin-3-yl]oxy}pyridine], the MIC in assay [1] and in assay [2] was ≤ 0.1 µg/mL in each case.
As for `COc1ccccc1-c1cccnc1Oc1ccc(COC(C)=O)nc1` [I-69, (5-{[3-(2-methoxyphenyl)-pyridin-2-yl]oxy}pyridin-2-yl)methyl acetate], the MIC in assay [1] and in assay [2] was 1.56 to 6.25 µg/mL in each case.
Consider `COc1cnccc1-c1cccnc1Oc1ccc(C(F)(F)F)cc1` [I-204, 3′-methoxy-2-[4-(trifluoromethyl)phenoxy]-3,4′-bipyridine], for which the MIC in assay [1] and in assay [2] was ≤ 0.1 µg/mL throughout.
Regarding `Cc1ccncc1-c1cccnc1Oc1ccc(-c2ncccn2)cc1` [I-429], the MIC in assay [1] and in assay [2] was ≤ 0.1 µg/mL each time.
Take `CC(=O)c1ccc(Oc2ncccc2-c2cnccc2C)cc1` [I-422]: the MIC in assay [1] and in assay [2] was 0.2 to 0.78 µg/mL (≈ 0.657 to 2.56 µM) throughout.
For the compound `Fc1cccc(-c2cccnc2Oc2ccc(C(F)(F)F)nc2)c1F` [I-9, 3-(2,3-difluorophenyl)-2-{[6-(trifluoromethyl)pyridin-3-yl]oxy}pyridine], the MIC is 0.2 to 0.78 µg/mL (≈ 0.568 to 2.21 µM) in assay [1] and ≤ 0.1 µg/mL in assay [2].
With `COc1cc(F)ccc1-c1cccnc1Oc1ccc(C(F)F)nc1` [I-73, 2-{[6-(difluoromethyl)pyridin-3-yl]oxy}-3-(4-fluoro-2-methoxyphenyl)pyridine], the MIC in assay [1] and in assay [2] was ≤ 0.1 µg/mL in each case.
Consider `COCC(F)(F)c1ccc(Oc2ncccc2-c2cc(OC)ccc2F)cn1` [I-458], for which the MIC in assay [1] and in assay [2] was ≤ 0.1 µg/mL throughout.
